From US20240409557A1, “5,6-FUSED AND 6,6-FUSED BICYCLIC ALCOHOLS AND ETHERS AND COMPOSITIONS FOR USE AS 15-PROSTAGLANDIN DEHYDROGENASE MODULATORS” (AMGEN INC., priority 2023, published 2024)

Target: T1, human recombinant 15-PGDH (Homo sapiens, UniProt P15428)
T1 sequence (P15428 1-266): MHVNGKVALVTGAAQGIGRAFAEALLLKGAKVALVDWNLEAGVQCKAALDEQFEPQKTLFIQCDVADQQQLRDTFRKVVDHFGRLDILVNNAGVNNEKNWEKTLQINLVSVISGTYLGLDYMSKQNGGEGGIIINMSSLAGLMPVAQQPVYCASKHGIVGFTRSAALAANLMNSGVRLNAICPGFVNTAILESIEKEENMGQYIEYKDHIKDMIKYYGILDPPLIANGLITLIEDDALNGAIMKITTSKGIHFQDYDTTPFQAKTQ
Experiment: Recombinant 15-PGDH enzymatic inhibition assay (PGDH-Lumi, NADH signal)
Type: biochemical
Settings: recombinant 15-PGDH; 15 min pre-incubation, 60 min reaction with PGE2 and NAD+, NADH signal
Description: These assays measured 15-PGDH enzymatic activity by quantifying the amount of NADH produced during a 60-minute reaction initiated by the addition of PGE2 and NAD+. Under the conditions of these experiments, the increase of NADH signal upon oxidation of PGE2 and reduction of NAD+ was linearly proportional to 15-PGDH enzymatic activity. The recombinant human, mouse, rat and dog 15-PGDH enzymatic assays were performed in a 25 μL volume of reaction buffer containing 50 mM Tris, pH 7.5, 0.01% Tween-20 and […] DTT in a 384-well microtiter plate. In concentration-response experiments with tested compounds, 22 concentrations from 2-fold serial dilutions in DMSO were pre-incubated with 15-PGDH for 15 minutes at room temperature. Then, PGE2 and β-NAD+ were added to initiate the 15-PGDH reaction. After 60 minutes at room temperature, the reaction was quenched and NADH signal was measured using a microtiter plate reader.
The following data (Table 27-1) provides the IC50 in μM of each compound for inhibiting enzymatic activity of the recombinant 15-PGDH in the assay described above.

| Structure (SMILES) | IC50 [nM] |
| --- | --- |
| CN1CCC(C(O)c2cc3ccc(-c4cnc5nn(C)cc5c4)nc3s2)C1 (stereo not shown) [Compound B62, (6-(2-methyl-2H-pyrazolo[3,4-b]pyridin-5-yl)thieno[2,3-b]pyridin-2-yl)(1-methyl-3-pyrrolidinyl)methanol] | 20.7 |
| Nc1c(C(O)C2CC(F)(F)C2)sc2nc(-c3cncnc3)ccc12 (stereo not shown) [Compound B71, (3-amino-6-(5-pyrimidinyl)thieno[2,3-b]pyridin-2-yl)(3,3-difluorocyclobutyl)methanol] | 0.749 |
| Cn1nnc2cc(-c3ccc4cc([C@@H](O)C5CC(F)(F)C5)sc4n3)cnc21 [Compound B82S, (S)-(3,3-difluorocyclobutyl)(6-(3-methyl-3H-[1,2,3]triazolo[4,5-b]pyridin-6-yl)thieno[2,3-b]pyridin-2-yl)methanol] | 1.65 |
| Cn1cc2cc(-c3cnc4sc([C@H](O)C5CC(F)(F)C5)cc4n3)cnc2n1 [Compound B96R, (R)-(3,3-difluorocyclobutyl)(2-(2-methyl-2H-pyrazolo[3,4-b]pyridin-5-yl)thieno[2,3-b]pyrazin-6-yl)methanol] | 0.44 |
| COCCC(C)(O)c1cc2ccc(-c3cnc4nn(C)cc4c3)nc2s1 (stereo not shown) [Compound C1, 4-methoxy-2-(6-(2-methyl-2H-pyrazolo[3,4-b]pyridin-5-yl)thieno[2,3-b]pyridin-2-yl)-2-butanol] | 43.8 |
| COCCC(O)(c1cc2ccc(-c3cnc4nn(C)cc4c3)nc2s1)C(F)(F)F (stereo not shown) [Compound C3, 1,1,1-trifluoro-4-methoxy-2-(6-(2-methyl-2H-pyrazolo[3,4-b]pyridin-5-yl)thieno[2,3-b]pyridin-2-yl)-2-butanol] | 807 |
| CN1CCC(O)(c2cc3ccc(-c4cnc5nn(C)cc5c4)nc3s2)C1 (stereo not shown) [Compound C4, 1-methyl-3-(6-(2-methyl-2H-pyrazolo[3,4-b]pyridin-5-yl)thieno[2,3-b]pyridin-2-yl)-3-pyrrolidinol] | 1800 |
| Cn1cc2cc(-c3ccc4cc(C(C)(C)O)sc4n3)cnc2n1 [Compound C9, 2-(6-(2-methyl-2H-pyrazolo[3,4-b]pyridin-5-yl)thieno[2,3-b]pyridin-2-yl)-2-propanol] | 419 |
| Cn1cc2cc(-c3ccc4cc(C(C)(O)C5CC5)sc4n3)cnc2n1 (stereo not shown) [Compound C11, 1-cyclopropyl-1-(6-(2-methyl-2H-pyrazolo[3,4-b]pyridin-5-yl)thieno[2,3-b]pyridin-2-yl)ethanol] | 101 |
| CN1CC(O)(c2cc3ccc(-c4cnc5nn(C)cc5c4)nc3s2)C1 [Compound C12, 1-methyl-3-(6-(2-methyl-2H-pyrazolo[3,4-b]pyridin-5-yl)thieno[2,3-b]pyridin-2-yl)-3-azetidinol] | 7.27 |
| Cn1cc2cc(-c3ccc4cc(C(O)(C5CC5)C(F)(F)F)sc4n3)cnc2n1 (stereo not shown) [Compound C17, 1-cyclopropyl-2,2,2-trifluoro-1-(6-(2-methyl-2H-pyrazolo[3,4-b]pyridin-5-yl)thieno[2,3-b]pyridin-2-yl)ethanol] | 1260 |
| Cn1cc2cc(-c3ccc4cc(C5(O)COC5)sc4n3)cnc2n1 [Compound C18, 3-(6-(2-methyl-2H-pyrazolo[3,4-b]pyridin-5-yl)thieno[2,3-b]pyridin-2-yl)-3-oxetanol] | 12.9 |
| Cn1cc2cc(-c3ccc4cc(C5(O)CCOC5)sc4n3)cnc2n1 (stereo not shown) [Compound C20, 3-(6-(2-methyl-2H-pyrazolo[3,4-b]pyridin-5-yl)thieno[2,3-b]pyridin-2-yl)tetrahydro-3-furanol] | 86 |
| Cn1cc2cc(-c3ccc4cc(C5(O)CCOCC5)sc4n3)cnc2n1 [Compound C22, 4-(6-(2-methyl-2H-pyrazolo[3,4-b]pyridin-5-yl)thieno[2,3-b]pyridin-2-yl)tetrahydro-2H-pyran-4-ol] | 257 |
| O=C1NCc2cc(-c3ncc4cc([C@]5(O)C[C@@H](C(F)(F)F)C5)sc4n3)cnc21 [Compound C128C, 3-(6-(cis-1-hydroxy-3-(trifluoromethyl)cyclobutyl)thieno[2,3-d]pyrimidin-2-yl)-5,6-dihydro-7H-pyrrolo[3,4-b]pyridin-7-one] | 0.62 |

More lines, in order of falling IC50, values ahead:

| IC50 [nM] | Structure (SMILES) |
| --- | --- |
| 2920 | CN1CCC(O)(c2cc3ccc(-c4cnc5nn(C)cc5c4)nc3s2)CC1 [Compound C7, 1-methyl-4-(6-(2-methyl-2H-pyrazolo[3,4-b]pyridin-5-yl)thieno[2,3-b]pyridin-2-yl)-4-piperidinol] |
| 761 | CN1CCCC(O)(c2cc3ccc(-c4cnc5nn(C)cc5c4)nc3s2)C1 (stereo not shown) [Compound C13, 1-methyl-3-(6-(2-methyl-2H-pyrazolo[3,4-b]pyridin-5-yl)thieno[2,3-b]pyridin-2-yl)-3-piperidinol] |
| 555 | CCC(O)(c1cc2ccc(-c3cnc4nn(C)cc4c3)nc2s1)C(F)(F)F (stereo not shown) [Compound C14, 1,1,1-trifluoro-2-(6-(2-methyl-2H-pyrazolo[3,4-b]pyridin-5-yl)thieno[2,3-b]pyridin-2-yl)-2-butanol] |
| 544 | COCC(C)(O)c1cc2ccc(-c3cnc4nn(C)cc4c3)nc2s1 (stereo not shown) [Compound C6, 1-methoxy-2-(6-(2-methyl-2H-pyrazolo[3,4-b]pyridin-5-yl)thieno[2,3-b]pyridin-2-yl)-2-propanol] |
| 235 | COCC(O)(c1cc2ccc(-c3cnc4nn(C)cc4c3)nc2s1)C(F)(F)F (stereo not shown) [Compound C16, 1,1,1-trifluoro-3-methoxy-2-(6-(2-methyl-2H-pyrazolo[3,4-b]pyridin-5-yl)thieno[2,3-b]pyridin-2-yl)-2-propanol] |
| 230 | Cn1cc2cc(-c3cc(-c4ccnn4C)c4cc(C(O)(C5CCC5)C(F)(F)F)sc4n3)cnc2n1 (stereo not shown) [Compound C24, 1-cyclobutyl-2,2,2-trifluoro-1-(6-(2-methyl-2H-pyrazolo[3,4-b]pyridin-5-yl)-4-(1-methyl-1H-pyrazol-5-yl)thieno[2,3-b]pyridin-2-yl)ethanol] |
| 225 | Cn1cc2cc(-c3ccc4cc(C(C)(O)C(F)(F)F)sc4n3)cnc2n1 (stereo not shown) [Compound C2, 1,1,1-trifluoro-2-(6-(2-methyl-2H-pyrazolo[3,4-b]pyridin-5-yl)thieno[2,3-b]pyridin-2-yl)-2-propanol] |
| 195 | CCC(C)(O)c1cc2ccc(-c3cnc4nn(C)cc4c3)nc2s1 (stereo not shown) [Compound C10, 2-(6-(2-methyl-2H-pyrazolo[3,4-b]pyridin-5-yl)thieno[2,3-b]pyridin-2-yl)-2-butanol] |
| 67.7 | Cn1cc2cc(-c3ccc4cc(C5(O)CCS(=O)(=O)CC5)sc4n3)cnc2n1 [Compound C8, 4-(6-(2-methyl-2H-pyrazolo[3,4-b]pyridin-5-yl)thieno[2,3-b]pyridin-2-yl)tetrahydro-2H-thiopyran-4-ol 1,1-dioxide] |
| 40.6 | Cn1cc2cc(-c3ccc4cc(C5(O)CCCC5)sc4n3)cnc2n1 [Compound C19, 1-(6-(2-methyl-2H-pyrazolo[3,4-b]pyridin-5-yl)thieno[2,3-b]pyridin-2-yl)cyclopentanol] |
| 15 | CN1CCCC(C(O)c2cc3ccc(-c4cnc5nn(C)cc5c4)nc3s2)C1 (stereo not shown) [Compound B63] |
| 8.41 | COCCC(O)c1cc2ccc(-c3cnc4nn(C)cc4c3)cc2s1 (stereo not shown) [Compound B59, 3-methoxy-1-(6-(2-methyl-2H-pyrazolo[3,4-b]pyridin-5-yl)-1-benzothiophen-2-yl)-1-propanol] |
| 3.1 | Cn1cc2cc(-c3cnc4sc([C@@H](O)C5CC(F)(F)C5)cc4n3)cnc2n1 [Compound B96S, (S)-(3,3-difluorocyclobutyl)(2-(2-methyl-2H-pyrazolo[3,4-b]pyridin-5-yl)thieno[2,3-b]pyrazin-6-yl)methanol] |
